Results published in patent US20230181472A1, “PROCESS OF MAKING IVABRADINE HYDROCHLORIDE DRUG PRODUCT” (Amgen Inc., priority 2018, published 2023).
Where a name gives a salt, the structure may show the parent alone.

Test: FT-Raman peak width (FWHM) at 705 cm^−1 as a measure of amorphous ivabradine hydrochloride
Format: physicochemical
Conditions: peak heights normalized at 705 cm^−1, broader peak = more amorphous content
Description: During characterization of the ivabradine hydrochloride chrystalline forms, Fourier Transform Raman Spectroscopy was used to evaluate different peak shapes. A Thermo Scientific Nicolet NXR FT-Raman equipped with liquid nitrogen cooled germanium (Ge) detector (Thermo Scientific) was used for FT-Raman signal collection. Peak broadening was most defined at a Raman shift of 705 cm^−1. The peak heights were normalized at 705 cm^−1 and the width of the peak was characterized as full width at half maximum (FWHM). Table 3 highlights the FWHM of pure tetrahydrate and amorphous drug substance with an approximate doubling of peak width for purely amorphous ivabradine hydrochloride. […] Modifying the process conditions as described herein produced FWHM values of 10.3 and 9.6 cm^−1 for the 5 mg and 7.5 mg drug products respectively showing the significant reduction in the amount of amorphous ivabradine hydrochloride present in the drug product.

| FWHM (cm^−1) of 705 cm^−1 peak [cm⁻¹] | SMILES |
| --- | --- |
| 8.4 | COc1cc2c(cc1OC)CC(=O)N(CCCN(C)C[C@H]1Cc3cc(OC)c(OC)cc31)CC2 [Ivabradine hydrochloride tetrahydrate (pure)] |
| 16.3 | COc1cc2c(cc1OC)CC(=O)N(CCCN(C)C[C@H]1Cc3cc(OC)c(OC)cc31)CC2 [Ivabradine hydrochloride amorphous (pure)] |
